Source: patent publication US20090317477A1, “COMBINATION OF DEHYDROEPIANDROSTERONE OR DEHYDROEPIANDROSTERONE-SULFATE WITH A GLUCOCORTICOSTEROID FOR TREATMENT OF ASTHMA, CHRONIC OBSTRUCTIVE PULMONARY DISEASE OR ALLERGIC RHINITIS” (priority 2004, published 2009)
“And” between values parts separate entries of the source, which are not always exact repeats. Equal entries are not always repeated.

Legend:
Intracellular adenosine = assay type: in vivo, Fischer 344 rats; settings: rat
HT-29 SF cells [1] = assay: DHEA effect on cell cycle (flow cytometry); assay type: cell-based, human
Procedure: Cells are plated at 10^5/60-mm dish in duplicate. […] Cultures are trypsinized following […] and fixed and stained using a modification of a procedure of Bauer et al., Cancer Res. 46, 3173-3178 (1986). Briefly, cells are collected by centrifugation and resuspended in cold phosphate-buffered saline. Cells are fixed in 70% ethanol, washed, and resuspended in phosphate-buffered saline.
After 24, 48, and 72 hours, cells are harvested, fixed in ethanol, and stained with propidium iodide, and the DNA content/cell is determined by flow cytometric analysis. The percentage of cells in G1, S, and G2M phases is calculated using the Cellfit cell cycle analysis program. S phase is marked by a quadrangle for clarity. Representative histograms from duplicate determinations are shown. The experiment is repeated three times.

HT-29 SF cells [2] = assay: Reversal of DHEA effect on cell cycle; assay type: cell-based, human; settings: 25 μM DHEA; increasing exposure time
HT-29 SF cells [3] = assay: DHEA effect on cell growth
Procedure: Cell cultures, HT-29 SF cells, which represent a subline of HY-29 cells (ATCC, Rockville, Md.) and are adapted for growth in completely defined serum-free PC-1 medium (Ventrex, Portland, Me.), are obtained. Stock cultures are maintained in this medium at 37° C. (in a humidified atmosphere containing 5% CO2).

[4] = Solid-state stability at 50° C. with and without lactose (DHEA formed, HPLC); assay type: physicochemical; settings: dihydrate
Text: These conditions are used to stress the formulation in order to predict its long-term stability results. […] The primary degradant is DHEA. […] The materials on accelerated storage become more cohesive with time as evidenced by clumping during sample weighing for chemical analysis. […] This is a considerable disadvantage since lactose is the most commonly used inhalation excipient for dry powder formulations. Continuing with the virtually anhydrous form would mean limiting formulations to neat powder or undertaking more comprehensive safety studies to use a novel excipient.

[5] = Fine particle fraction, single-dose Acu-Breathe device into Andersen impactor; assay type: physicochemical; settings: aerosol of dihydrate/lactose blend; Test 2; 60 L/min
Procedure: The single-dose Acu-Breathe device is used for evaluating DHEA-S-dihydrate. Approximately 10 mg of neat DHEA-S-dihydrate powder is filled and sealed into foil blisters. These blisters are actuated into the Andersen 8-stage cascade impactor at flow rates ranging from 30 to 75 L/min with a glass twin-impinger throat. Stages 1-5 of the Andersen impactor are rinsed together to obtain an estimate of the fine particle fraction. Pooling the drug collected from multiple stages into one assay make the method much more sensitive. […] This unique feature of DHEA-S-dihydrate has not been reported in any previous literature. […] Using a carrier with a larger particle size typically improves the aerosol properties of micronized drug substances.
Approximately 25 mg of this powder is filled and sealed in foil blisters and aerosolized using the single-dose device at 60 L/min. The aerosol results for this preliminary powder blend are satisfactory for a respiratory drug delivery system. […] This diameter is smaller than the median diameter measured for micronized DHEA-S-dihydrate by laser diffraction. Irregularly shaped particles can behave aerodynamically as smaller particles since their longest dimension tends to align with the air flow field. Therefore, it is common to see a difference between the two methods. […]

Solubility of DHEA-S = assay type: physicochemical; settings: 20 mM Na^+; Ksp of 1316 mM^2 (15° C.)
Text: Inhalation of pure water can produce a cough stimulus. […] The temperature effect is weaker at high NaCl concentrations.

[6] = Nebulizer studies (Pari ProNeb Ultra, LC Plus); assay type: physicochemical; settings: 0.12% NaCl
Procedure: The nebulizer is filled with 5 mL of solution and nebulization is continued until the output became visually insignificant (4½ to 5 min.). Nebulizer solutions are tested using a California Instruments AS-6 6-stage impactor with a USP throat. The impactor is run at 30 L/min for 8 s to collect a sample following one minute of nebulization time. At all other times during the experiment, the aerosol is drawn through the by-pass collector at approximately 33 L/min. The collection apparatus, nebulizer, and impactor are rinsed with mobile phase and assayed by HPLC. […] This volume is selected as the practical upper limit for use in a clinical study.

[7] = test system: LPS-induced secretion of TNFα from PBMC; assay: LPS-induced secretion of TNFα from PBMC; assay type: cell-based, human
Procedure: Thereafter, 1 μg/ml LPS was added to induce the cytokine secretion and the mixture was incubated for 24 h at 37° C. For basal control measurements, LPS was omitted from the incubation medium. Following incubation, the samples were centrifuged at 250× g for 5 min at 4° C. and the supernatants were collected.
The amount of secreted TNF-α present in the supernatant was quantified using an EIA detection kit (R&D systems). The photometric measurements were made with a microplate reader (Ultra, Tecan).
The results are expressed as a percent inhibition of the control secretion induced by LPS in Table 16.

Glucocorticoid receptor = target: T1, Glucocorticoid receptor (Homo sapiens, UniProt P04150); assay: Radioligand binding assay, Glucocorticoid; settings: 100 μM
T1 sequence (P04150 1-777): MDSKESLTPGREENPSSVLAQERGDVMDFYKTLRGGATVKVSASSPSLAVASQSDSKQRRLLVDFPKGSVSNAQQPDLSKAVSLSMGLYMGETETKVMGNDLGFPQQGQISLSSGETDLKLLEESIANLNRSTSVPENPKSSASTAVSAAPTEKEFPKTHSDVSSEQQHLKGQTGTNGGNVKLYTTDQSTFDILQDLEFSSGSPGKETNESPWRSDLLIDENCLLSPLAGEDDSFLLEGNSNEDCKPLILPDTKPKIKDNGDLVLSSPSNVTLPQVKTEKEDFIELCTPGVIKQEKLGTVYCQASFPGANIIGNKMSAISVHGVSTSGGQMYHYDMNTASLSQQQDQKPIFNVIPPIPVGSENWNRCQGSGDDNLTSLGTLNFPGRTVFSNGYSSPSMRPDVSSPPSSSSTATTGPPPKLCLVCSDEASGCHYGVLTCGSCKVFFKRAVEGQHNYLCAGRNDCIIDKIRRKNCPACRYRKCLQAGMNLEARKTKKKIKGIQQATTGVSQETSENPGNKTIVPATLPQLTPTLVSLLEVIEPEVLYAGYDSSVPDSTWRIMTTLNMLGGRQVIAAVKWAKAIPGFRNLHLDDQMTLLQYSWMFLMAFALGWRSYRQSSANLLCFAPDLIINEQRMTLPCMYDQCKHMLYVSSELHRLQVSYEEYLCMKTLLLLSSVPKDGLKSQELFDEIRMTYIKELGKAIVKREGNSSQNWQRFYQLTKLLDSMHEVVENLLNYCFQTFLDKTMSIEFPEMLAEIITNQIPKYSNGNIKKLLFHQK

[8] = test system: Glucocorticoid, Testosterone, Estrogen ERα, Estrogen ERβ, Progesterone, Vitamin D3 receptors; assay: Radioligand binding assays, steroid receptor panel (statements in words)
[9] = Homo sapiens, PBMC, read-out: percent inhibition of LPS-induced TNFα secretion

Nc1nc(=O)c2c([nH]1)NCC(CNc1ccc(C(=O)N[C@@H](CCC(=O)O)C(=O)O)cc1)N2C=O (mixture of isomers) [Folinic Acid]
Intracellular adenosine, Brain (Intracellular adenosine; in vivo): 0.72 ± 0.09 | effect of coadministration of folinic acid on steroid-mediated adenosine depletion (Intracellular adenosine; with DHEA or methyltestosterone): completely abrogate steroid-mediated adenosine depletion

C[C@]12CC[C@H](O)CC1=CC[C@@H]1[C@@H]2CC[C@]2(C)C(=O)CC[C@@H]12 [DHEA, 3β-hydroxyandrost-5-en-17-one]
effect on adenosine across organs (Intracellular adenosine; daily for two weeks): multi-organ depletion of adenosine | cell cycle distribution (HT-29 SF cells [1]; 200 μM DHEA): more rapid increase in the percentage of cells in G1 and a decreased proportion of cells in S phase after 24 hours | cell cycle effect (HT-29 SF cells [1]; 25, 50, 200 μM, 24-72 hours): G1 block in HT-29 SF cells in a time-and dose-dependent manner | effect on proportion of cells in S phase (HT-29 SF cells [2]): progressively reduced the proportion of cells in S phase | exposure time after which cell number is reduced compared to controls (HT-29 SF cells [3]; 12.5 μM DHEA): 72 h | exposure time after which cell number is reduced compared to controls (HT-29 SF cells [3]; 25 μM DHEA): 48 h | exposure time after which cell number is reduced compared to controls (HT-29 SF cells [3]; 50 μM DHEA): 48 h | exposure time after which cell number is reduced compared to controls (HT-29 SF cells [3]; 200 μM DHEA): 24 h | inhibition of growth (HT-29 SF cells [3]; 12.5-200 μM, 24-72 hours): time- and dose-dependent inhibition of growth

CC12CCC3C(CC=C4CC(OS(=O)(=O)[O-])CCC43C)C1CCC2=O.[Na+] (centres unmarked) [DHEA-S dihydrate]
Percent DHEA formed ([4]; 50° C., 1 week): 0.216% | Percent DHEA formed ([4]; 50° C., 3 weeks): 0.317% | Percent DHEA formed ([4]; 50° C., 4 weeks): 0.374% | Percent DHEA formed ([4]; Control, sealed, 25° C., 4 weeks): 0.218% | Percent DHEA formed ([4]; Control, sealed, 25° C., first column (Time=0)): 0.213%

C[C@]12CC[C@H](OS(=O)(=O)[O-])CC1=CC[C@@H]1[C@@H]2CC[C@]2(C)C(=O)CC[C@@H]12.[Na+] [DHEA-S, sodium dehydroepiandrostenone sulfate]
median diameter of aerosol by cascade impaction [5]: ~2.5 μm | calculated solubility of DHEA-S^− (Solubility of DHEA-S): 27.5 mM and 10.7 mg/mL | highest solution concentration for a clinical trial formulation (no precipitate during nebulization) [6]: approximately 7.5 mg/mL | percent inhibition of LPS-induced TNFα secretion ([7]; DHEAS 30 μM alone): −2% | percent inhibition of LPS-induced TNFα secretion ([7]; DHEAS 100 μM alone): 32% | binding to the glucocorticosteroid receptor (Glucocorticoid receptor): does not bind to the glucocorticosteroid receptor | binding to the steroid receptors [8]: lack of effect on ligand binding on the other four receptors

C[C@@H]1C[C@H]2[C@@H]3CCC4=CC(=O)C=C[C@]4(C)[C@@]3(F)[C@@H](O)C[C@]2(C)[C@@]1(O)C(=O)CO [Dexamethasone]
inhibition at 0.001 µM [7, 9]: -3% | inhibition at 0.01 µM [7, 9]: 4% | inhibition at 0.1 µM [7, 9]: 36%
